Columns and labels:
human Nav1.7 [1] = biological target: T1, human Nav1.7 (Homo sapiens, UniProt Q15858); experiment: Nav 1.7 In Vitro PatchXpress (PX) Assay; format: cell-based; conditions: HEK 293 cells stably transfected with human Nav1.7; PatchXpress whole cell voltage clamp; partially inactivated state (holding potential yielding 20 to 50% inactivation); read-out: hNav1.7 PX IC50
T1 construct: expressed in transfected cells; host or cells: HEK293
Method: Nav 1.7 In Vitro PatchXpress (PX) Assay
HEK 293 cells stably transfected with human Nav1.7 were recorded in whole cell voltage clamp mode with the PatchXpress automated electrophysiology system (Molecular Devices, LLC, Sunnyvale, Calif.). Compound effects were measured on a partially inactivated state of the sodium channel. Cells were clamped to a holding potential yielding 20 to 50% inactivation. To elicit sodium current, channels were activated by pulsing to −10 mV for 20 msec. This voltage protocol was repeated at a rate of 0.1 Hz throughout the experiment. A single concentration of test compound was applied to cells for a duration of 3 minutes. Peak sodium current was measured at the end of the compound addition period to determine percent inhibition. Three to five cells were tested per concentration, and IC50 curves were fitted to percent inhibition as a function of concentration.

human Nav1.7 [2] = biological target: T1, human Nav1.7; experiment: Nav 1.7 IWB In Vitro Assay (IonWorks Barracuda); format: cell-based; conditions: HEK293 cells stably transfected with human Nav 1.7; IonWorks Barracuda population patch-clamp; cells clamped to −20 mV for 4 minutes with compound; 26th pulse; read-out: hNav1.7 IWB IC50
Method: Nav 1.7 IWB In Vitro Assay
HEK293 cells stably transfected with human Nav 1.7 were recorded in population patch-clamp mode with the IonWorks© Barracuda (IWB) automated electrophysiology system (Molecular Devices, LLC, Sunnyvale, Calif.). From a holding potential of −110 mV, sodium currents were elicited by a train of 26 depolarizations of 150 ms duration to −20 mV at a frequency of 5 Hz. Cells were then clamped to −20 mV for a period of 4 minutes in the presence of a single concentration of test compound. Following this compound incubation period, cells were clamped to −110 mV for three seconds to recover unbound channels and put through the same 26 pulse voltage protocol as above. Peak inward current during the 26th pulse to −20 mV in the presence of compound was divided by the peak inward current evoked by the 26th pulse to −20 mV in the absence of compound to determine percent inhibition. Concentration-response curves of percent inhibition as a function of concentration were generated to calculate IC50 values.

T1 sequence (Q15858 whole entry): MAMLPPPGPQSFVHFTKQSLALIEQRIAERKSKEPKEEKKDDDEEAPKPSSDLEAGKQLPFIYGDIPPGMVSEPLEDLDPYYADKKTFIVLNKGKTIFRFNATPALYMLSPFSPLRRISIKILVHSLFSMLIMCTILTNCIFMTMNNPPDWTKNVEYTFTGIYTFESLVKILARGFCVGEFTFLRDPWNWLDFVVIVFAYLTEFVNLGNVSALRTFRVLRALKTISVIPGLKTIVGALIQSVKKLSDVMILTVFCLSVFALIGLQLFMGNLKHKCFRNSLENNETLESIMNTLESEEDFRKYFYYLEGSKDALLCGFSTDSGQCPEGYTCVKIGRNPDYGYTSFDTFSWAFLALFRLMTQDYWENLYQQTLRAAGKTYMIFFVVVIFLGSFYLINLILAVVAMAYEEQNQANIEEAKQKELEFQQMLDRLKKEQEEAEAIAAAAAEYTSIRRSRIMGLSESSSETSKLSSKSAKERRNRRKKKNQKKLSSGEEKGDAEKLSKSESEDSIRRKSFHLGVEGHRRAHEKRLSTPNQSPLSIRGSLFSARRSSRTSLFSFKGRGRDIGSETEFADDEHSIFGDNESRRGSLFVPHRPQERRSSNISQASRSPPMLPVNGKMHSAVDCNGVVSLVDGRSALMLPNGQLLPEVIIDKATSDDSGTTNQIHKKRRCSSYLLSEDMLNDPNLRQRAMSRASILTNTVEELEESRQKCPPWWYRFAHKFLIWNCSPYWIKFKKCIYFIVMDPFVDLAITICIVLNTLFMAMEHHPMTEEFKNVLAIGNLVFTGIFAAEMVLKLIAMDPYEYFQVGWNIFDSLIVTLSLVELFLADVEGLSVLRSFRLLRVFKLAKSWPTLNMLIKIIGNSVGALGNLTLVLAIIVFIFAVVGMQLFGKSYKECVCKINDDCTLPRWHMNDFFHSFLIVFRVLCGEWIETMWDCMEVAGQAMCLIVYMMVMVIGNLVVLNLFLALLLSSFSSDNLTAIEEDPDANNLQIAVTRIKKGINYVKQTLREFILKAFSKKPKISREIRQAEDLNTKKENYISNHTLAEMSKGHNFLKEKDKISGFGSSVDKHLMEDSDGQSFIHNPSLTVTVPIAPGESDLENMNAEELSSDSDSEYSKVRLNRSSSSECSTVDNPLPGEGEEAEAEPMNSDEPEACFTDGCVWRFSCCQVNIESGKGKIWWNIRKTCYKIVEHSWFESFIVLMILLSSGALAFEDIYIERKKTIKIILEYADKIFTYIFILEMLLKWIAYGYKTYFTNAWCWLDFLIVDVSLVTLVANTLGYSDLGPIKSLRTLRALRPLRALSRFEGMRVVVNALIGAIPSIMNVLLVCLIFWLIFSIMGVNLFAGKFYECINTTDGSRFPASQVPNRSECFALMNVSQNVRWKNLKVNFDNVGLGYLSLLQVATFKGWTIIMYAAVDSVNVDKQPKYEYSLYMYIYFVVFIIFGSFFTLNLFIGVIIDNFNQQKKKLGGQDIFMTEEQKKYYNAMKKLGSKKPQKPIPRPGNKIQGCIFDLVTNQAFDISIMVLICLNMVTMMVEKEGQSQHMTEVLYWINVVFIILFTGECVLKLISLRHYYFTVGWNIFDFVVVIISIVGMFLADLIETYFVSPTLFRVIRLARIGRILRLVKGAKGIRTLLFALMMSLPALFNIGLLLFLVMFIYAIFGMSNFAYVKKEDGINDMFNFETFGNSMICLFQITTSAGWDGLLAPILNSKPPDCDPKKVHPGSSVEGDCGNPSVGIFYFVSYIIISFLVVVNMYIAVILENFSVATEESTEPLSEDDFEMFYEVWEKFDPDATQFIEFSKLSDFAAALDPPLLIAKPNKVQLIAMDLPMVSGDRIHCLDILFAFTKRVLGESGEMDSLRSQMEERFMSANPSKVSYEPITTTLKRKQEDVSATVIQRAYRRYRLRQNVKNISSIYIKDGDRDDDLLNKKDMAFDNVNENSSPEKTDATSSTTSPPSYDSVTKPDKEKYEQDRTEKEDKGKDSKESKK

`COc1cc(-c2ccc(F)c(C)c2)c(F)cc1-n1c2c(ccc1=O)CN(S(=O)(=O)Nc1ccon1)CC2` (racemic) [Example 22-(Rac), (Rac)-1-(2,4′-difluoro-5-methoxy-3′-methyl-4-biphenylyl)-N-3-isoxazolyl-2-oxo-1,5,7,8-tetrahydro-1,6-naphthyridine-6(2H)-sulfonamide] showed an IC50 (human Nav1.7 [1]) of 255 nM.
`COc1cc(-c2cc(F)cc(F)c2)c(F)cc1-n1c2c(ccc1=O)CN(S(=O)(=O)Nc1ccon1)CC2` (racemic) [Example 25-(Rac), (Rac)-N-3-isoxazolyl-2-oxo-1-(2,3′,5′-trifluoro-5-methoxy-4-biphenylyl)-1,5,7,8-tetrahydro-1,6-naphthyridine-6(2H)-sulfonamide] gave an IC50 (human Nav1.7 [1]) of 209 nM.
Work on `COc1cc(C(F)(F)F)ccc1-n1c2c(ccc1=O)CN(S(=O)(=O)Nc1ccon1)CC2` (racemic) [Example 26-(Rac), (Rac)-N-3-isoxazolyl-1-(2-methoxy-4-(trifluoromethyl)phenyl)-2-oxo-1,5,7,8-tetrahydro-1,6-naphthyridine-6(2H)-sulfonamide] yielded an IC50 (human Nav1.7 [1]) greater than 1000 nM.
`COc1ccccc1-n1c2c(ccc1=O)CN(S(=O)(=O)Nc1ccon1)CC2` (racemic) [Example 27, (Rac)-N-3-isoxazolyl-1-(2-methoxyphenyl)-2-oxo-1,5,7,8-tetrahydro-1,6-naphthyridine-6(2H)-sulfonamide] gave an IC50 (human Nav1.7 [1]) greater than 1000 nM.
Work on `COc1cc(Br)c(F)cc1-n1c2c(ccc1=O)CN(S(=O)(=O)Nc1ncccn1)CC2` (racemic) [Preparation 8a, 1-(4-bromo-5-fluoro-2-methoxyphenyl)-2-oxo-N-2-pyrimidinyl-1,5,7,8-tetrahydro-1,6-naphthyridine-6(2H)-sulfonamide] yielded an IC50 (human Nav1.7 [2]) of 4240 nM.
Work on `COc1cc(Br)c(F)cc1-n1c2c(ccc1=O)CN(S(=O)(=O)Nc1cccnn1)CC2` (racemic) [Preparation 8b, 1-(4-bromo-5-fluoro-2-methoxyphenyl)-2-oxo-N-3-pyridazinyl-1,5,7,8-tetrahydro-1,6-naphthyridine-6(2H)-sulfonamide] yielded an IC50 (human Nav1.7 [2]) of 1120 nM.
In the case of `COc1cc(Br)c(Cl)cc1-n1c2c(ccc1=O)CN(S(=O)(=O)Nc1ccon1)CC2` (racemic) [Preparation 8c, 1-(4-bromo-5-chloro-2-methoxyphenyl)-N-3-isoxazolyl-2-oxo-1,5,7,8-tetrahydro-1,6-naphthyridine-6(2H)-sulfonamide], the IC50 (human Nav1.7 [2]) is reported as 2880 nM.
Work on `COc1cc(-c2cc(F)cc(Cl)c2)c(F)cc1-n1c2c(ccc1=O)CN(S(=O)(=O)Nc1cc(C)ncn1)CC2` (single isomer, unassigned) [Example 4-M, M-1-(3′-chloro-2,5′-difluoro-5-methoxy-4-biphenylyl)-N-(6-methyl-4-pyrimidinyl)-2-oxo-1,5,7,8-tetrahydro-1,6-naphthyridine-6(2H)-sulfonamide] yielded an IC50 (human Nav1.7 [2]) of 8300 nM.
`COc1cc(-c2cc(F)cc(Cl)c2)c(F)cc1-n1c2c(ccc1=O)CN(S(=O)(=O)Nc1ncns1)CC2` (single isomer, unassigned) [Example 5-M, M-1-(3′-chloro-2,5′-difluoro-5-methoxy-4-biphenylyl)-2-oxo-N-1,2,4-thiadiazol-5-yl-1,5,7,8-tetrahydro-1,6-naphthyridine-6(2H)-sulfonamide] gave an IC50 (human Nav1.7 [2]) of 726 nM.
For `COc1cc(-c2cc(F)cc(Cl)c2)c(F)cc1-n1c2c(ccc1=O)CN(S(=O)(=O)Nc1ccnc(C)n1)CC2` (single isomer, unassigned) [Example 6-M, M-1-(3′-chloro-2,5′-difluoro-5-methoxy-4-biphenylyl)-N-(2-methyl-4-pyrimidinyl)-2-oxo-1,5,7,8-tetrahydro-1,6-naphthyridine-6(2H)-sulfonamide], the IC50 (human Nav1.7 [2]) was 8820 nM.
`COc1cc(-c2cc(F)cc(Cl)c2)ccc1-n1c2c(ccc1=O)CN(S(=O)(=O)Nc1ccon1)CC2` (single isomer, unassigned) [Example 7-M, M-1-(3′-chloro-5′-fluoro-3-methoxy-4-biphenylyl)-N-3-isoxazolyl-2-oxo-1,5,7,8-tetrahydro-1,6-naphthyridine-6(2H)-sulfonamide] showed an IC50 (human Nav1.7 [2]) of 1210 nM.
`COc1cc(-c2cc(F)cc(Cl)c2)ccc1-n1c2c(ccc1=O)CN(S(=O)(=O)Nc1cccnn1)CC2` (single isomer, unassigned) [Example 8-M, M-1-(3′-chloro-5′-fluoro-3-methoxy-4-biphenylyl)-2-oxo-N-3-pyridazinyl-1,5,7,8-tetrahydro-1,6-naphthyridine-6(2H)-sulfonamide] was tested, and the IC50 (human Nav1.7 [2]) was 2950 nM.
`COc1cc(-c2cc(F)cc(F)c2)c(F)cc1-n1c2c(ccc1=O)CN(S(=O)(=O)Nc1cccc(F)n1)CC2` (single isomer, unassigned) [Example 14-M, M-N-(6-fluoro-2-pyridinyl)-2-oxo-1-(2,3′,5′-trifluoro-5-methoxy-4-biphenylyl)-1,5,7,8-tetrahydro-1,6-naphthyridine-6(2H)-sulfonamide] was tested, and the IC50 (human Nav1.7 [2]) was 452 nM.
With `COc1cc(-c2cccc(C(F)(F)F)c2)c(F)cc1-n1c2c(ccc1=O)CN(S(=O)(=O)Nc1ccon1)CC2` (single isomer, unassigned) [Example 16-M, M-1-(2-fluoro-5-methoxy-3′-(trifluoromethyl)-4-biphenylyl)-N-3-isoxazolyl-2-oxo-1,5,7,8-tetrahydro-1,6-naphthyridine-6(2H)-sulfonamide] the IC50 (human Nav1.7 [2]) was 720 nM.
`COc1cc(-c2ccc(Cl)c(C)c2)c(F)cc1-n1c2c(ccc1=O)CN(S(=O)(=O)Nc1ccon1)CC2` (single isomer, unassigned) [Example 24-M, M-1-(4′-chloro-2-fluoro-5-methoxy-3′-methyl-4-biphenylyl)-N-3-isoxazolyl-2-oxo-1,5,7,8-tetrahydro-1,6-naphthyridine-6(2H)-sulfonamide] gave an IC50 (human Nav1.7 [2]) of 462 nM.
`COc1cc(-c2ccc(Cl)c(C)c2)c(F)cc1-n1c2c(ccc1=O)CN(S(=O)(=O)Nc1cccnn1)CC2` (single isomer, unassigned) [Example 33-M, M-1-(4′-chloro-2-fluoro-5-methoxy-3′-methyl-4-biphenylyl)-2-oxo-N-3-pyridazinyl-1,5,7,8-tetrahydro-1,6-naphthyridine-6(2H)-sulfonamide] was tested, and the IC50 (human Nav1.7 [2]) was greater than 10000 nM.
For `COc1cc(C#CC2CCCC2)c(F)cc1-n1c2c(ccc1=O)CN(S(=O)(=O)Nc1ccon1)CC2` (single isomer, unassigned) [Example 34-M, M-1-(4-(cyclopentylethynyl)-5-fluoro-2-methoxyphenyl)-N-3-isoxazolyl-2-oxo-1,5,7,8-tetrahydro-1,6-naphthyridine-6(2H)-sulfonamide], the IC50 (human Nav1.7 [2]) was 9720 nM.
`COc1cc(-c2cc(OC)c(-n3c4c(ccc3=O)CN(S(=O)(=O)Nc3ccon3)CC4)cc2F)ccc1C` (single isomer, unassigned) [Example 58-M, M-1-(2-fluoro-3′,5-dimethoxy-4′-methyl-4-biphenylyl)-N-3-isoxazolyl-2-oxo-1,5,7,8-tetrahydro-1,6-naphthyridine-6(2H)-sulfonamide] was tested, and the IC50 (human Nav1.7 [2]) was 1480 nM.
`COc1cc(CCC(F)(F)F)c(Cl)cc1-n1c2c(ccc1=O)CN(S(=O)(=O)Nc1cccnn1)CC2` (single isomer, unassigned) [Example 96-M, M-1-(5-chloro-2-methoxy-4-(3,3,3-trifluoropropyl)phenyl)-2-oxo-N-(pyridazin-3-yl)-1,2,7,8-tetrahydro-1,6-naphthyridine-6(5H)-sulfonamide] was tested, and the IC50 (human Nav1.7 [2]) was 856 nM.
With `COc1cc(Br)c(Cl)cc1-n1c2c(ccc1=O)CN(S(=O)(=O)Nc1ccon1)CC2` (single isomer, unassigned) [Preparation 8c-M, M-1-(4-bromo-5-chloro-2-methoxyphenyl)-N-3-isoxazolyl-2-oxo-1,5,7,8-tetrahydro-1,6-naphthyridine-6(2H)-sulfonamide] the IC50 (human Nav1.7 [2]) was greater than 25000 nM.
`COc1cc(Br)c(Cl)cc1-n1c2c(ccc1=O)CN(S(=O)(=O)Nc1ccon1)CC2` (single isomer, unassigned) [Preparation 8c-P, P-1-(4-bromo-5-chloro-2-methoxyphenyl)-N-3-isoxazolyl-2-oxo-1,5,7,8-tetrahydro-1,6-naphthyridine-6(2H)-sulfonamide] was tested, and the IC50 (human Nav1.7 [2]) was 768 nM.
In the case of `COc1cc(Br)c(F)cc1-n1c2c(ccc1=O)CN(S(=O)(=O)Nc1ccncn1)CC2` (single isomer, unassigned) [Preparation 8f-M, M-1-(4-bromo-5-fluoro-2-methoxyphenyl)-2-oxo-N-(pyrimidin-4-yl)-1,2,7,8-tetrahydro-1,6-naphthyridine-6(5H)-sulfonamide], the IC50 (human Nav1.7 [2]) is reported as greater than 25000 nM.
`COc1cc(Br)c(F)cc1-n1c2c(ccc1=O)CN(S(=O)(=O)Nc1ccncn1)CC2` (single isomer, unassigned) [Preparation 8f-P, P-1-(4-bromo-5-fluoro-2-methoxyphenyl)-2-oxo-N-(pyrimidin-4-yl)-1,2,7,8-tetrahydro-1,6-naphthyridine-6(5H)-sulfonamide] was tested, and the IC50 (human Nav1.7 [2]) was 193 nM.

Source: US10472356B2, “Bicyclic ketone sulfonamide compounds” (AMGEN INC., priority 2015, dated 2019)
